Laboratory results: paper PMC2981824 (Bioorganic & medicinal chemistry, 2010)
Values after ≈ are worked out from the molar mass of the structure shown. Values joined by “and” are separate entries in the source; they are usually repeats but may differ in a detail not shown here. Equal entries are not always repeated.

Assays:
[1] = system: P. falciparum K1 strain; format: cell-based; conditions: Plasmodium falciparum, K1, read-out: IC50 P. falciparum BS
[2] = system: P. yoelii liver stages (PyGFP sporozoites); experiment: Liver stage growth inhibition, flow cytometric; format: cell-based; conditions: Plasmodium yoelii, 43 h, read-out: IC50 P. yoelii LS FC
[3] = system: P. yoelii liver stages; experiment: Liver stage growth inhibition, immunofluorescence analysis; format: cell-based; conditions: Plasmodium yoelii, 43 h, read-out: IC50 P. yoelii LS IFA
[4] = target: T1, PfFabI (Plasmodium falciparum, UniProt Q9BH77); experiment: biochemical; format: biochemical; conditions: for Ki: Ki PfFabI
T1 sequence (Q9BH77 22-432): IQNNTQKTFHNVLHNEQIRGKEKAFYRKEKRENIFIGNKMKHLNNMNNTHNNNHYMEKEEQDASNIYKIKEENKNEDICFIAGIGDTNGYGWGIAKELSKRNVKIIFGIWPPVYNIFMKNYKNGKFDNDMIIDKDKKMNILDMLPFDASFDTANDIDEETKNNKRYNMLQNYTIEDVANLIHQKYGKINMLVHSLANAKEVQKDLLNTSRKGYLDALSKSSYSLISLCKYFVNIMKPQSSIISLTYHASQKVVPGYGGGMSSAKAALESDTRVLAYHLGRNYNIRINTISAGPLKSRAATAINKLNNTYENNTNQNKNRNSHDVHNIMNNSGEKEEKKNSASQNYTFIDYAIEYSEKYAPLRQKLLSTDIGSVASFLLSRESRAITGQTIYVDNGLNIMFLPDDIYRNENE

[5] = target: T2, PfFabZ (Plasmodium falciparum, UniProt Q965D7); experiment: biochemical; format: biochemical
T2 sequence (Q965D7 19-230): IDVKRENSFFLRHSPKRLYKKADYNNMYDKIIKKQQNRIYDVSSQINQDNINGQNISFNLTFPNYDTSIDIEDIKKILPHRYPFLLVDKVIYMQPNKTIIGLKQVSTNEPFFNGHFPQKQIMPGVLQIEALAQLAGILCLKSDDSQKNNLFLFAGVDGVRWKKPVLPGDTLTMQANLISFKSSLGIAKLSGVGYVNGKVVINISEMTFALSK

[6] = target: PfFabG (Plasmodium falciparum, UniProt Q8I2S7); experiment: biochemical; format: biochemical
[7] = system: L. donovani strain MHOM/ET/67/L82; experiment: Leishmanicidal activity, axenic amastigotes; format: cell-based; conditions: Leishmania donovani, 72 h, read-out: IC50 Leishmania donovani
[8] = Cytotoxicity against L6 cells; format: cell-based, rat; conditions: rat
[9] = system: HepG2:CD81 cells; experiment: Toxicity to hepatoma cells; format: cell-based; conditions: FC (7-AAD) or IFA (DAPI)
[10] = target: mycobacterial InhA (MtFabI) enzyme; conditions: read-out: Ki InhA (MtFabI); competitive inhibition; cited from earlier work
[11] = system: L6 cells; experiment: Cytotoxicity against L6 cells; format: cell-based, rat; conditions: highest test concentration 90 μg/ml
[12] = system: LS development; conditions: cited from earlier work
[13] = system: late liver phases of P. berghei; conditions: cited from earlier work

CCCCCCCCCCCCCC#CC(=O)O [2-HDA, 2-Hexadecynoic acid]
IC50 [1]: 10.4 µg/mL (≈ 41.2 µM)
IC50 [2]: 15.3 µg/mL (≈ 60.6 µM)
IC50 [3]: 4.88 µg/mL (≈ 19.3 µM)
IC50 [4]: 1510 nM
Ki ([4]; cofactor (NADH) varied): 2580 nM
Ki ([4]; substrate (crotonyl-CoA) varied): 2890 nM and 2900 nM
Inhibition type PfFabI ([4]; with respect to crotonyl-CoA and the cofactor NADH): non-competitive
IC50 [5]: 2300 nM
Inhibition type PfFabZ ([5]; with respect to the substrate): competitive
IC50 [6]: 13900 nM
Ki ([6]; Ki PfFabG, cofactor NADPH varied): 6000 nM
Inhibition type PfFabG ([6]; cofactor NADPH varied): non-competitive
Inhibition type PfFabG ([6]; substrate acetoacetyl-CoA varied): competitive
IC50 [7]: 4.5 µg/mL (≈ 17.8 µM)
IC50 at 72 h [8]: 85.9 µg/mL (≈ 340 µM)
Toxicity against HepG2:CD81 hepatoma cells (in words) [9]: non-toxic
Ki [10]: 2100 ± 600 nM

CCCCCCCCCCC#CCCCC(=O)O [5-HDA, 5-Hexadecynoic acid]
IC50 [6]: > 396000 nM
Toxicity against L6 cells (in words) [11]: completely non-toxic

CCCCCCCCCC#CCCCCC(=O)O [6-HDA, 6-Hexadecynoic acid]
IC50 [6]: > 396000 nM

CCCCCCC#CCCCCCCCC(=O)O [9-HDA, 9-Hexadecynoic acid]
IC50 [1]: 10.3 µg/mL (≈ 40.8 µM)
IC50 [6]: > 396000 nM

CCCCCCCCCCCCCCCC(=O)O [PA, Palmitic acid, reference compound]
IC50 [4]: > 390000 nM
IC50 [6]: > 390000 nM

Oc1c(Cl)cc(Cl)c(Cl)c1Cc1c(O)c(Cl)cc(Cl)c1Cl [hexachlorophene]
IC50 LS development in vitro [12]: 1.95 µg/mL (≈ 4.79 µM)
IC50 ([12]; read-out: IC50 LS development in vitro): 4800 nM

Oc1cc(Cl)ccc1Oc1ccc(Cl)cc1Cl [triclosan]
IC50 late liver phases of P. berghei [13]: 11.4 µg/mL
IC50 ([13]; read-out: IC50 late liver phases of P. berghei): 39400 nM
